Experimental data from article PMC7707092, “Discovery and characterization of ORM‐11372, a novel inhibitor of the sodium‐calcium exchanger with positive inotropic activity” (British Journal of Pharmacology, 2020).
Values joined by “and” are separate entries in the source; they are usually repeats but may differ in a detail not shown here. Equal entries are not always repeated. Where two headings read alike, the source gives them in different places.

Experiments:
h5‐HT2A receptors = target: T1, h5‐HT2A receptors (Homo sapiens, UniProt P28223); assay: h5‐HT2A agonism and antagonism, intracellular calcium in recombinant HEK 293 cells; format: cell-based; settings: maximum concentration 10 μM
T1 construct: host or cells: recombinant HEK 293
Experimental: (§1) Radioligand binding assays were performed at Eurofins Cerep SA (Celle L'Evescault, France), for testing the inhibition capacity of ORM‐11372 (at 10 μM with two replicates), in over 75 targets. These included receptors (e.g., human A1, A2A, and A3 adenosine receptors; α1 and α2 adrenoceptors; human β1–β3 adrenergic receptors; human D1, D2S, D3, D4.4, and D5 dopamine receptors; EGF and VEGF receptors; human M1–M5 muscarinic ACh receptors; human 5‐HT1A, 5‐HT2A, 5‐HT2B, 5‐HT2C, 5‐HT4e, 5‐HT5A, 5‐HT6, and 5‐HT7 receptors), ion channels (5‐HT3, Ca^2+, ATP‐dependent potassium channel [KATP], voltage‐dependent potassium channel [KV], small‐conductance calcium‐dependent potassium channel [SKCa], Na^+, and Cl^−), and transporters (adenosine, noradrenaline, dopamine, and 5‐HT). Follow‐up functional studies (with five concentrations and two replicates) were performed for 5‐HT2A receptors and noradrenaline transporter. Agonism and antagonism at h5‐HT2A receptors was explored in recombinant HEK 293 cells and intracellular calcium changes were detected using fluorimetry. Noradrenaline uptake was measured by carrying out scintillation counting of [^3H]noradrenaline incorporated into rat hypothalamus synaptosomes.

[1] = target: T2, noradrenaline transporter (Rattus norvegicus, UniProt Q9WTR4); assay: [^3H]noradrenaline uptake into rat hypothalamus synaptosomes; format: biochemical
T2 construct: [^3H]noradrenaline incorporated into rat hypothalamus synaptosomes; from tissue; host or cells: rat hypothalamus synaptosomes
Experimental: as §1

[2] = target: T3, human NCX 1.1 current (I NCX) (Homo sapiens, UniProt P32418); assay: NCX current (I NCX), whole‐cell patch‐clamp in hiPSC‐derived cardiomyocytes; format: cell-based; settings: hiPSC‐CMs, 35–37°C
T3 construct: Cor.4U cells express cardiac proteins including NCX1; host or cells: Cor.4U hiPSC-derived cardiomyocytes
Source text: Human‐induced pluripotent stem cell (hiPSC)‐derived CMs (Cor.4U CMs; RRID:CVCL_Y550) were thawed, seeded onto gelatine‐coated coverslips, and maintained, as described in the manufacturer's protocol.
Manual patch‐clamp recordings of membrane currents (I NCX, L‐type Ca^2+ channel current [I CaL], human cardiac sodium 1.5 current [I Na], and I hERG) were undertaken using either an Axopatch 200B or Axopatch ID amplifier (Molecular Devices, USA), using the whole‐cell configuration. […]
The measurement of current in the K^+‐free bath solution using a ramp voltage protocol at 20‐s intervals represented the first control, after which values were measured in the presence of one or more increasing concentrations of ORM‐11372 and finally upon exposure to 10‐mM NiCl2. […] Therefore, to enhance the inward current and enable a solution with a certain concentration of ORM‐11372 to be measured, the concentrations of the K^+‐free and pipette solutions were altered. […] The outward human I NCX inhibition current was measured at the following ORM‐11372 concentrations: 3 (n = 4), 10 (n = 6), 30 (n = 4), and 100 (n = 3) nM. […] The outward I NCX current in rat CMs was measured at concentrations ranging from 1 to 1,000 nM (n = 5). The inward I NCX current in rats was measured in additional experiments under changed conditions, to enhance the inward I NCX current. […]

T2 sequence (Q9WTR4 1-597): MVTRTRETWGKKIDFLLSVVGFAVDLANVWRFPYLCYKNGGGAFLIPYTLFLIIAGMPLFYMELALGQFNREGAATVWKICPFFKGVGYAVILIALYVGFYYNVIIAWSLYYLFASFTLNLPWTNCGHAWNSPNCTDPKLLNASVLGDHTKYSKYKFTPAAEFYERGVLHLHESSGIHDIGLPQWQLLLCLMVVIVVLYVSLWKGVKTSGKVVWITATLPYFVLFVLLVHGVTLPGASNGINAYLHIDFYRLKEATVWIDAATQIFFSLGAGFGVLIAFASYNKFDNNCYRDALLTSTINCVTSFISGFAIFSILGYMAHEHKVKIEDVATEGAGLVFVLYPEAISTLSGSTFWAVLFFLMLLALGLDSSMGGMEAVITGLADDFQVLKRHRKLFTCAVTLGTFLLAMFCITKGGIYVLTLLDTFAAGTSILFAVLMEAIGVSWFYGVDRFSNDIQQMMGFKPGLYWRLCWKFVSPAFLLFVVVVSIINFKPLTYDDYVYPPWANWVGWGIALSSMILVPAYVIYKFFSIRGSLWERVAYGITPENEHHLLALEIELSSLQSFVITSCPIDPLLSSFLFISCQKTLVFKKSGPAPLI
T1 sequence (P28223 whole entry): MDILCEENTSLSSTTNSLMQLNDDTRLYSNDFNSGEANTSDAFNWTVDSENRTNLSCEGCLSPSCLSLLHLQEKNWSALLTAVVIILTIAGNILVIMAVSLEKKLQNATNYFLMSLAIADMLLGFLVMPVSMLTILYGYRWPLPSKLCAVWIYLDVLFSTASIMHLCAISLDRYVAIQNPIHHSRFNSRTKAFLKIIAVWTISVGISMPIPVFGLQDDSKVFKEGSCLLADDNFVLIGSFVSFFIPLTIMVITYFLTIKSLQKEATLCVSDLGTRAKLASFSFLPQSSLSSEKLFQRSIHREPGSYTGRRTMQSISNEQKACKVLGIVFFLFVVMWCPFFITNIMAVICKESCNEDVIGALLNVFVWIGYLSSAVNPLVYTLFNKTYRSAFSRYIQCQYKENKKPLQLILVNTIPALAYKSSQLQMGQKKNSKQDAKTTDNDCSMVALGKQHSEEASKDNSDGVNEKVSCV

Nc1cccc(-c2ccc(CNc3ccc(F)cc3)o2)c1 [ORM‐11372]
agonism / antagonism at 5‐HT2A receptors (h5‐HT2A receptors): Neither agonism nor antagonism
IC50 [1]: 1700 nM
IC50 ([2]; Ni^2+‐sensitive current at +60 mV, read-out: IC50 outward (reverse) I NCX): 4.8 nM and 5 nM
IC50 ([2]; Ni^2+‐sensitive current at −100 mV, read-out: IC50 inward (forward) I NCX): 5.6 nM and 6 nM
